Experimental data from the NIST ThermoML archive (doi:10.1021/je034048e).
Numbers after ± are expanded uncertainties.

Test: molar heat capacity at constant pressure
Conditions: 101.33 kPa

CCCCCCCC/C=C/CCCCCCCC(=O)OCC(COC(=O)CCCCCCC/C=C/CCCCCCCC)OC(=O)CCCCCCC/C=C/CCCCCCCC [trielaidin]
molar heat capacity at constant pressure (158.51 K, Crystal): 861.53 ± 18 J/K/mol | molar heat capacity at constant pressure (158.69 K, Metastable crystal, Small (less than 1 g) adiabatic calorimetry): 917.31 ± 19 J/K/mol | molar heat capacity at constant pressure (160 K, Crystal, Small (less than 1 g) adiabatic calorimetry): 867.72 ± 18 J/K/mol | molar heat capacity at constant pressure (160 K, Metastable crystal, Small (less than 1 g) adiabatic calorimetry): 920.85 ± 18 J/K/mol | molar heat capacity at constant pressure (161.21 K, Crystal): 871.27 ± 19 J/K/mol | molar heat capacity at constant pressure (161.6 K, Metastable crystal, Small (less than 1 g) adiabatic calorimetry): 932.36 ± 19 J/K/mol | molar heat capacity at constant pressure (163.89 K, Crystal): 883.66 ± 19 J/K/mol | molar heat capacity at constant pressure (164.51 K, Metastable crystal, Small (less than 1 g) adiabatic calorimetry): 946.53 ± 19 J/K/mol | molar heat capacity at constant pressure (166.55 K, Crystal): 893.4 ± 19 J/K/mol | molar heat capacity at constant pressure (167.42 K, Metastable crystal, Small (less than 1 g) adiabatic calorimetry): 962.46 ± 19 J/K/mol | molar heat capacity at constant pressure (169.18 K, Crystal): 904.91 ± 19 J/K/mol | molar heat capacity at constant pressure (170 K, Crystal, Small (less than 1 g) adiabatic calorimetry): 912 ± 18 J/K/mol | molar heat capacity at constant pressure (170 K, Metastable crystal, Small (less than 1 g) adiabatic calorimetry): 973.98 ± 18 J/K/mol | molar heat capacity at constant pressure (170.34 K, Metastable crystal, Small (less than 1 g) adiabatic calorimetry): 977.52 ± 19 J/K/mol | molar heat capacity at constant pressure (171.79 K, Crystal): 914.65 ± 19 J/K/mol | molar heat capacity at constant pressure (174.38 K, Crystal): 927.05 ± 19 J/K/mol | molar heat capacity at constant pressure (176.16 K, Metastable crystal, Small (less than 1 g) adiabatic calorimetry): 1009.4 ± 20 J/K/mol | molar heat capacity at constant pressure (176.95 K, Crystal): 936.79 ± 19 J/K/mol | molar heat capacity at constant pressure (179.08 K, Metastable crystal, Small (less than 1 g) adiabatic calorimetry): 1022.7 ± 20 J/K/mol | molar heat capacity at constant pressure (179.5 K, Crystal): 947.41 ± 19 J/K/mol | molar heat capacity at constant pressure (180 K, Crystal, Small (less than 1 g) adiabatic calorimetry): 947.41 ± 18 J/K/mol | molar heat capacity at constant pressure (180 K, Metastable crystal, Small (less than 1 g) adiabatic calorimetry): 1027.1 ± 18 J/K/mol | molar heat capacity at constant pressure (181.99 K, Metastable crystal, Small (less than 1 g) adiabatic calorimetry): 1043 ± 21 J/K/mol | molar heat capacity at constant pressure (182.03 K, Crystal): 958.04 ± 20 J/K/mol | molar heat capacity at constant pressure (184.54 K, Crystal): 970.43 ± 20 J/K/mol | molar heat capacity at constant pressure (184.9 K, Metastable crystal, Small (less than 1 g) adiabatic calorimetry): 1066.1 ± 21 J/K/mol | molar heat capacity at constant pressure (187.03 K, Crystal): 978.4 ± 20 J/K/mol | molar heat capacity at constant pressure (187.79 K, Metastable crystal, Small (less than 1 g) adiabatic calorimetry): 1080.2 ± 22 J/K/mol | molar heat capacity at constant pressure (189.51 K, Crystal): 989.03 ± 20 J/K/mol | molar heat capacity at constant pressure (190 K, Crystal, Small (less than 1 g) adiabatic calorimetry): 991.68 ± 18 J/K/mol | molar heat capacity at constant pressure (190 K, Metastable crystal, Small (less than 1 g) adiabatic calorimetry): 1097.9 ± 27 J/K/mol | molar heat capacity at constant pressure (190.66 K, Metastable crystal, Small (less than 1 g) adiabatic calorimetry): 1104.1 ± 22 J/K/mol | molar heat capacity at constant pressure (191.97 K, Crystal): 998.77 ± 21 J/K/mol | molar heat capacity at constant pressure (193.5 K, Metastable crystal, Small (less than 1 g) adiabatic calorimetry): 1125.4 ± 23 J/K/mol | molar heat capacity at constant pressure (194.42 K, Crystal): 1008.5 ± 21 J/K/mol | molar heat capacity at constant pressure (196.32 K, Metastable crystal, Small (less than 1 g) adiabatic calorimetry): 1147.5 ± 23 J/K/mol | molar heat capacity at constant pressure (196.84 K, Crystal): 1020 ± 21 J/K/mol | molar heat capacity at constant pressure (199.11 K, Metastable crystal, Small (less than 1 g) adiabatic calorimetry): 1169.7 ± 24 J/K/mol | molar heat capacity at constant pressure (199.25 K, Crystal): 1028.9 ± 21 J/K/mol | molar heat capacity at constant pressure (200 K, Crystal, Small (less than 1 g) adiabatic calorimetry): 1036 ± 18 J/K/mol | molar heat capacity at constant pressure (200 K, Metastable crystal, Small (less than 1 g) adiabatic calorimetry): 1177.6 ± 27 J/K/mol | molar heat capacity at constant pressure (201.65 K, Crystal): 1037.7 ± 21 J/K/mol | molar heat capacity at constant pressure (201.89 K, Metastable crystal, Small (less than 1 g) adiabatic calorimetry): 1191.8 ± 24 J/K/mol | molar heat capacity at constant pressure (204.65 K, Metastable crystal, Small (less than 1 g) adiabatic calorimetry): 1213.9 ± 25 J/K/mol | molar heat capacity at constant pressure (206.39 K, Crystal): 1058.1 ± 22 J/K/mol | molar heat capacity at constant pressure (207.38 K, Metastable crystal, Small (less than 1 g) adiabatic calorimetry): 1237.8 ± 25 J/K/mol | molar heat capacity at constant pressure (208.74 K, Crystal): 1067.8 ± 22 J/K/mol | molar heat capacity at constant pressure (210 K, Crystal, Small (less than 1 g) adiabatic calorimetry): 1071.4 ± 27 J/K/mol | molar heat capacity at constant pressure (210 K, Metastable crystal, Small (less than 1 g) adiabatic calorimetry): 1257.3 ± 27 J/K/mol | molar heat capacity at constant pressure (210.1 K, Metastable crystal, Small (less than 1 g) adiabatic calorimetry): 1260 ± 26 J/K/mol | molar heat capacity at constant pressure (211.08 K, Crystal): 1077.6 ± 22 J/K/mol | molar heat capacity at constant pressure (212.79 K, Metastable crystal, Small (less than 1 g) adiabatic calorimetry): 1280.3 ± 26 J/K/mol | molar heat capacity at constant pressure (213.41 K, Crystal): 1087.3 ± 23 J/K/mol | molar heat capacity at constant pressure (215.47 K, Metastable crystal, Small (less than 1 g) adiabatic calorimetry): 1303.4 ± 27 J/K/mol | molar heat capacity at constant pressure (215.72 K, Crystal): 1097.9 ± 23 J/K/mol | molar heat capacity at constant pressure (218.01 K, Crystal): 1108.6 ± 23 J/K/mol | molar heat capacity at constant pressure (218.13 K, Metastable crystal, Small (less than 1 g) adiabatic calorimetry): 1322.8 ± 27 J/K/mol | molar heat capacity at constant pressure (220 K, Crystal, Small (less than 1 g) adiabatic calorimetry): 1115.6 ± 27 J/K/mol | molar heat capacity at constant pressure (220 K, Metastable crystal, Small (less than 1 g) adiabatic calorimetry): 1337 ± 27 J/K/mol | molar heat capacity at constant pressure (220.3 K, Crystal): 1117.4 ± 23 J/K/mol | molar heat capacity at constant pressure (220.78 K, Metastable crystal, Small (less than 1 g) adiabatic calorimetry): 1343.2 ± 27 J/K/mol | molar heat capacity at constant pressure (222.57 K, Crystal): 1127.2 ± 24 J/K/mol | molar heat capacity at constant pressure (223.41 K, Metastable crystal, Small (less than 1 g) adiabatic calorimetry): 1362.7 ± 27 J/K/mol | molar heat capacity at constant pressure (224.83 K, Crystal): 1137.8 ± 24 J/K/mol | molar heat capacity at constant pressure (226.02 K, Metastable crystal, Small (less than 1 g) adiabatic calorimetry): 1384.8 ± 28 J/K/mol | molar heat capacity at constant pressure (227.07 K, Crystal): 1149.3 ± 24 J/K/mol | molar heat capacity at constant pressure (228.62 K, Metastable crystal, Small (less than 1 g) adiabatic calorimetry): 1405.2 ± 28 J/K/mol | molar heat capacity at constant pressure (229.31 K, Crystal): 1160.8 ± 24 J/K/mol | molar heat capacity at constant pressure (230 K, Crystal, Small (less than 1 g) adiabatic calorimetry): 1159.9 ± 27 J/K/mol | molar heat capacity at constant pressure (230 K, Metastable crystal, Small (less than 1 g) adiabatic calorimetry): 1416.7 ± 27 J/K/mol | molar heat capacity at constant pressure (231.2 K, Metastable crystal, Small (less than 1 g) adiabatic calorimetry): 1423.8 ± 29 J/K/mol | molar heat capacity at constant pressure (231.53 K, Crystal): 1169.7 ± 25 J/K/mol | molar heat capacity at constant pressure (233.74 K, Crystal): 1180.3 ± 25 J/K/mol | molar heat capacity at constant pressure (233.77 K, Metastable crystal, Small (less than 1 g) adiabatic calorimetry): 1443.3 ± 29 J/K/mol | molar heat capacity at constant pressure (235.94 K, Crystal): 1190.9 ± 25 J/K/mol | molar heat capacity at constant pressure (236.32 K, Metastable crystal, Small (less than 1 g) adiabatic calorimetry): 1463.6 ± 29 J/K/mol | molar heat capacity at constant pressure (238.13 K, Crystal): 1201.5 ± 25 J/K/mol | molar heat capacity at constant pressure (238.87 K, Metastable crystal, Small (less than 1 g) adiabatic calorimetry): 1484 ± 30 J/K/mol | molar heat capacity at constant pressure (240 K, Crystal, Small (less than 1 g) adiabatic calorimetry): 1213 ± 27 J/K/mol | molar heat capacity at constant pressure (240 K, Metastable crystal, Small (less than 1 g) adiabatic calorimetry): 1496.4 ± 27 J/K/mol | molar heat capacity at constant pressure (240.31 K, Crystal): 1212.2 ± 26 J/K/mol | molar heat capacity at constant pressure (241.4 K, Metastable crystal, Small (less than 1 g) adiabatic calorimetry): 1503.5 ± 30 J/K/mol | molar heat capacity at constant pressure (242.48 K, Crystal): 1222.8 ± 26 J/K/mol | molar heat capacity at constant pressure (243.91 K, Metastable crystal, Small (less than 1 g) adiabatic calorimetry): 1523.8 ± 31 J/K/mol | molar heat capacity at constant pressure (244.64 K, Crystal): 1235.2 ± 26 J/K/mol | molar heat capacity at constant pressure (246.41 K, Metastable crystal, Small (less than 1 g) adiabatic calorimetry): 1545.1 ± 31 J/K/mol
